Test system: triple Cys-mutants of seHAS
Test: NEM inactivation of triple Cys-mutants of seHAS and protection by substrates
Format: biochemical, Streptococcus equisimilis
Settings: 5 mM NEM, 4° C., 10 min
Experimental: FIG. 6. Substrates protect triple Cys-mutants of seHAS from inactivation by NEM. E. coli membranes containing the indicated triple Cys-mutant of seHAS (each with a single remaining Cys residue) were treated at 4° C. for 10 min with no additions (control; 100% values) or with 5 mM NEM alone and in the presence of either UDP, UDP-GIcUA or UDP-GIcNAc. Unreacted Nem was then quenched and HAS activity was determined. Results are not shown for the mutant containing only Cys^367, since NEM inactivation of this mutant is ˜10% and all values were essentially identical.
Although the 4 Cys residues in seHAS (positions 226, 262, 281 and 367) are roughly conserved in all Class I HAS family members, the Cys-null mutants of seHAs and spHAS are active, with minimal changes in their kinetics compared to wild type. It is also shown here that neither HAS contains disulfide bonds. To understand why these four cysteines are, nevertheless, largely conserved within the Class I HASs, NEM sensitivity was examined (i.e., the time- and dose-dependent inhibition) of all possible Cys-to-Ala mutants of seHAS. […] Cys281 appears not to be within a UDP-sugar binding site, since the triple Cys-mutant seHAS (A3C)C281 was not protected from NEM inhibition by UDP, UDP-GIcUA or UDP-GIcNAc (FIG. 6).
Stock solutions (10–100 mM) of NEM, IAA or other sulfhydryl reagents were made in PBS, pH 7.0. […]

CCN1C(=O)C=CC1=O [N-ethylmaleimide]
NEM inactivation of the seHAS mutant containing only Cys^367: ~10%
